Measured values: patent US7402424B2, “Spectroscopic pH measurement at high-temperature and/or high-pressure” (Schlumberger Technology Corporation, priority 2006, dated 2008)
Read-outs that look alike come from different tables or passages of the source.

How the values were obtained:
[1] = Molar absorptivity ε of acid and base forms of reagents at 570 nm and 445 nm; type: physicochemical; conditions: for ε at 445 nm (λ1), Acid / ε at 570 nm (λ2), Acid: acid form; for ε at 445 nm (λ1), Acid / ε at 445 nm (λ1), Base / ε at 570 nm (λ2), Base: in M-1·cm-1 (unit assumed); for ε at 445 nm (λ1), Base / ε at 570 nm (λ2), Base: base form (sodium salt of the reagent)
[2] = pKa of reagents (reagent properties used in the model of FIG. 2a); type: physicochemical; conditions: reagent property used in the model of FIG. 2a

In the case of `O=S1(=O)OC(c2cc(Br)c(O)c(Br)c2)(c2cc(Br)c(O)c(Br)c2)c2ccccc21` [Bromophenol Blue], the “ε at 445 nm (λ1), Acid” value [1] is reported as 21711, the ε at 570 nm (λ2), Acid [1] is reported as 378 M⁻¹ cm⁻¹ and the “ε at 445 nm (λ1), Base” value [1] is reported as 1981. For the same molecule, the “ε at 570 nm (λ2), Base” value [1] was 46859 and the pKa [2] was 4.11.

In the case of `O=S1(=O)OC(c2ccc(O)c(Cl)c2)(c2ccc(O)c(Cl)c2)c2ccccc21` [Chlorophenol Red], the “ε at 445 nm (λ1), Acid” value [1] is reported as 18136, the ε at 570 nm (λ2), Acid [1] is reported as 58 M⁻¹ cm⁻¹ and the “ε at 445 nm (λ1), Base” value [1] is reported as 1985. For the same molecule, the “ε at 570 nm (λ2), Base” value [1] was 54247 and the pKa [2] was 6.11.

For `O=S1(=O)OC(c2ccc(O)cc2)(c2ccc(O)cc2)c2ccccc21` [Phenol Red], the pKa ([2]; read-out: pKa) was 7.79.
